Where “and” joins values, the source holds several entries; their conditions need not be identical. Equal entries are not always repeated. Where two headings read alike, the source gives them in different places. Some results are limits rather than exact numbers.

A short description of data set [1]: Intrinsic clearance (Cli), mouse liver microsomes. In kind it is in vitro ADME. The settings on record: for Cli: mouse microsomes. A general note: Liver microsomes are vesicles of endoplasmic reticulum, rich in cytochrome P450 enzymes.
The nature of the next data set: in vitro. The class given is cell-based, human. The note with it: human.
The test system of data set [2] is MRC5, human lung fibroblast cells. The data set is described as follows: in vitro. In kind it is cell-based.
In data set [3] the test system is T. b. brucei, BSF427, VSG118. The experiment in a line: Cell viability assay, trypanosome. The class given is cell-based.
The next data set concerns HsNMT. The class given is biochemical, human. The settings on record: for S = IC50 HsNMT/EC50 T. brucei: selectivity.

With `Cc1nn(C)c(C)c1NS(=O)(=O)c1c(Cl)cc(Br)cc1Cl` [compound 7, 4-bromo-2,6-dichloro-N-(1,3,5-trimethyl-1H-pyrazol-4-yl)-benzenesulfonamide], in data set [1] (mouse liver microsomes), the “Cli (mouse)” value is 14 mL min^–1 g^–1. The EC50 (as a rule, the concentration needed to bring the measured effect to its halfway point) at 69 h in the data set “in vitro” is greater than 50 µM.

In turn, `Cc1nn(C)c(C)c1NS(=O)(=O)c1c(Cl)cc(C#CCN2CCN(C)CC2)cc1Cl` [compound 13] displayed an EC50 at 69 h in “in vitro” (MRC-5 EC50) greater than 50 µM. With `Cc1nn(C)c(C)c1NS(=O)(=O)c1c(Cl)cc(CCCN2CCN(C)CC2)cc1Cl` [compound 14], the “Cli (mouse)” value in data set [1] (mouse liver microsomes) was found to be 1.7 mL min^–1 g^–1. In data set [1], this compound gave a Cli of 1.7 mL/min/g. In “in vitro” (MRC-5 EC50), `Cc1nn(C)c(C)c1NS(=O)(=O)c1ccc(CCCN2CCN(C)CC2)cc1` [compound 15] came in with an EC50 at 69 h greater than 50 µM. As for `Cc1nn(C)c(C)c1NS(=O)(=O)c1c(Cl)cc(CCCC2CCN(C)CC2)cc1Cl` [compound 16], in data set [1] (mouse liver microsomes), the “Cli (mouse)” value is reported as 4.3 mL min^–1 g^–1. Besides, the Cli in data set [1] is reported as 4.3 mL/min/g. Take `Cc1nn(C)c(C)c1NS(=O)(=O)c1ccc(CCCC2CCNCC2)cc1` [compound 19]: the EC50 at 69 h in the data set “in vitro” (MRC-5 EC50) was greater than 50 µM.

With `Cc1nn(C)c(C)c1N(C)[S+](=O)([O-])c1c(Cl)cc(-c2ccnc(N3CCNCC3)c2)cc1Cl` [compound 29], in data set [1] (mouse liver microsomes), the “Cli (mouse)” value turned out to be 17 mL min^–1 g^–1. On to `Cc1nn(C)c(C)c1N(C)[S+](=O)([O-])c1ccc(-c2ccnc(N3CCNCC3)c2)cc1` [compound 30], for which, in data set [1] (mouse liver microsomes), the “Cli (mouse)” value amounted to 1.3 mL min^–1 g^–1.

`Cc1nn(C)c(C)c1NS(=O)(=O)c1ccc(-c2cccc(CN3CCN(C)CC3)c2)cc1` [compound 31]: the “Cli (mouse)” value in data set [1] (mouse liver microsomes) is given as 1.2 mL min^–1 g^–1.

On to `Cc1nn(C)c(C)c1N(C)S(=O)(=O)c1ccc(-c2cccc(CN3CCN(C)CC3)c2)cc1` [compound 32], for which the “Cli (mouse)” value in data set [1] (mouse liver microsomes) is recorded as 9.7 mL min^–1 g^–1. Take `Cc1nn(C)c(C)c1N(C)S(=O)(=O)c1c(Cl)cc(CCCCCn2ccnc2)cc1Cl` [compound 35]: the “Cli (mouse)” value in data set [1] (mouse liver microsomes) was 2.0 mL min^–1 g^–1. Regarding `Cc1nn(C)c(C)c1N(C)[S+](=O)([O-])c1c(Cl)cc(CCCCCCn2ccnc2)cc1Cl` [compound 36], the “Cli (mouse)” value in data set [1] (mouse liver microsomes) came out at 3.0 mL min^–1 g^–1. Also, the EC50 in the data set “in vitro” (MRC-5 EC50) was found to be 7800 nM.

Turning to `Cc1nn(C)c(C)c1N(C)S(=O)(=O)c1ccc(CCCC2CCN(C)CC2)cc1` [compound 38], the “Cli (mouse)” value in data set [1] (mouse liver microsomes) is recorded as 3.7 mL min^–1 g^–1. In the data set “in vitro” (read-out: MRC-5 EC50), the EC50 came out at 42000 nM. In the case of `Cc1nn(C)c(C)c1N(CC(F)F)S(=O)(=O)c1c(Cl)cc(CCCC2CCN(C)CC2)cc1Cl` [compound 41], the “Cli (mouse)” value in data set [1] (mouse liver microsomes) is listed as 2.2 mL min^–1 g^–1. Further, in data set [1], the Cli stood at 2.2 mL/min/g. With `Cc1nn(C)c(C)c1N(C(F)F)[S+](=O)([O-])c1c(Cl)cc(CCCC2CCNCC2)cc1Cl` [compound 43], the “Cli (mouse)” value in data set [1] (mouse liver microsomes) worked out at 0.8 mL min^–1 g^–1. For `Cc1nn(C)c(C)c1N(C(F)F)[S+](=O)([O-])c1c(Cl)cc(CCCN2CCN(C)CC2)cc1Cl` [compound 44], the “Cli (mouse)” value in data set [1] (mouse liver microsomes) is 4.2 mL min^–1 g^–1. As for `Cc1nn(C)c(C)c1N(C(F)F)[S+](=O)([O-])c1c(Cl)cc(CCCCC2CCNCC2)cc1Cl` [compound 45], the “Cli (mouse)” value in data set [1] (mouse liver microsomes) was 1.0 mL min^–1 g^–1. As for `Cc1nn(C)c(C)c1N(C(F)F)[S+](=O)([O-])c1c(Cl)cc(CCCOC2CCN(C)CC2)cc1Cl` [compound 47], the “Cli (mouse)” value in data set [1] (mouse liver microsomes) turned out to be 3.7 mL min^–1 g^–1. With `Cc1nn(C)c(C)c1N(C(F)F)S(=O)(=O)c1c(Cl)cc(CCCCCCN(C)C)cc1Cl` [compound 48], in data set [1] (mouse liver microsomes), the “Cli (mouse)” value amounted to 3.7 mL min^–1 g^–1. The same measure, in the same setting: as for `Cc1nn(C)c(C)c1N(C(F)F)S(=O)(=O)c1c(Cl)cc(CCCOC[C@@H]2CCCN2C)cc1Cl` [compound 49], the figure is 8.7 mL min^–1 g^–1. Turning to `Cc1nn(C)c(C)c1N(C(F)F)S(=O)(=O)c1c(Cl)cc(CCCOC[C@@H]2CCCCN2C)cc1Cl` [compound 50], the “Cli (mouse)” value in data set [1] (mouse liver microsomes) came to 9.8 mL min^–1 g^–1. Regarding `Cc1nn(C)c(C)c1N(C(F)F)S(=O)(=O)c1c(Cl)cc(CCCOC[C@H]2CCCCN2C)cc1Cl` [compound 52], in data set [1] (mouse liver microsomes), the “Cli (mouse)” value came to 14.2 mL min^–1 g^–1. `Cc1nn(C)c(C)c1NS(=O)(=O)c1ccc(-c2ccnc(N3CCNCC3)c2)cc1Cl` [compound 54] returned an EC50 in data set [2] of 250 nM. Consider `Cc1cc(-c2ccnc(N3CCNCC3)c2)ccc1S(=O)(=O)Nc1c(C)nn(C)c1C` [compound 57], for which the values for the EC50 in data set [3] and in data set [2] were 4 nM and 530 nM, respectively. Consider `Cc1nn(C)c(C)c1NS(=O)(=O)c1ccc(-c2ccnc(N3CCNCC3)c2)cc1F` [compound 58], for which the “Cli (mouse)” value in data set [1] (Table S1, unit not given) is reported as less than 0.5. Besides, the EC50 in the data set “in vitro” (read-out: MRC-5 EC50) is 530 nM. On to `Cc1nn(C)c(C)c1NS(=O)(=O)c1ccc(-c2ccnc(N3CCNC(C)C3)c2)cc1` (centres unmarked) [compound 60], for which the EC50 in data set [3] (Trypanosoma brucei) was 4 nM; in the data set “in vitro” (read-out: MRC-5 EC50), 790 nM.

In the case of `Cc1nn(C)c(C)c1NS(=O)(=O)c1ccc(-c2ccnc(N3CC(C)NC(C)C3)c2)cc1` (centres unmarked) [compound 62], the EC50 in data set [3] (Trypanosoma brucei) was 30 nM; in the data set “in vitro” (read-out: MRC-5 EC50) it was 2690 nM. With `Cc1nn(C)c(C)c1NS(=O)(=O)c1ccc(-c2ccnc(N3CCNC(C(C)C)C3)c2)cc1` (centres unmarked) [compound 63], the values for the EC50 (in data set [3] (Trypanosoma brucei); in “in vitro” (read-out: MRC-5 EC50)) were 140 nM and 8160 nM, respectively. Taken in the same sequence, the figures for `Cc1nn(C)c(C)c1N(C(F)F)[S+](=O)([O-])c1c(Cl)cc(CCCN2CCCN(C)CC2)cc1Cl` [compound 65] were 0.6 nM and 410 nM. `Cc1nn(C)c(C)c1N(C(F)F)S(=O)(=O)c1c(Cl)cc(CCCN2CCCNCC2)cc1Cl` [compound 66]: in data set [2], the EC50 stood at 340 nM. For `Cc1nn(C)c(C)c1N(C(F)F)[S+](=O)([O-])c1c(Cl)cc(CCCCCCn2ccnc2C)cc1Cl` [compound 68], the results for the EC50 (in data set [3] (Trypanosoma brucei); in the data set “in vitro” (read-out: MRC-5 EC50)) were 5 nM and 910 nM, respectively. Taken in the same sequence, the figures for `CCc1nccn1CCCCCCc1cc(Cl)c([S+](=O)([O-])N(c2c(C)nn(C)c2C)C(F)F)c(Cl)c1` [compound 69] were 150 nM and 7700 nM. As for `Cc1nn(C)c(C)c1N(C(F)F)S(=O)(=O)c1c(Cl)cc(CCCOC2CC3CCC(C2)N3C)cc1Cl` (centres unmarked) [compound 72], in the data set with HsNMT (mean of two or more determinations), the IC50 (as a rule, the concentration at which inhibition is half-maximal) stood at 2 nM. Also, in the data set on HsNMT, the “S = IC50 HsNMT/EC50 T. brucei” value came to 10. The EC50 in data set [3] was found to be 0.2 nM; in data set [2], 70 nM.

Turning to `Cc1nn(C)c(C)c1N(C(F)F)S(=O)(=O)c1c(Cl)cc(-c2ccnc(N3CCNCC3)c2)cc1Cl` [compound 74], the EC50 was determined as 3 nM in data set [3] and 140 nM in data set [2]. Take `CCN(C)CCCCCCc1cc(Cl)c(S(=O)(=O)N(c2c(C)nn(C)c2C)C(F)F)c(Cl)c1` [compound 83]: the “S = IC50 HsNMT/EC50 T. brucei” value in the data set on HsNMT was 3 and 5.

Values taken from article PMC4269550, “Lead Optimization of a Pyrazole Sulfonamide Series of Trypanosoma bruceiN-Myristoyltransferase Inhibitors: Identification and Evaluation of CNS Penetrant Compounds as Potential Treatments for Stage 2 Human African Trypanosomiasis” (Journal of Medicinal Chemistry, 2014).
